{"source": "paper PMC11714206", "about": "“Massively Parallel Screening of Toll/Interleukin‐1 Receptor (TIR)‐Derived Peptides Reveals Multiple Toll‐Like Receptors (TLRs)‐Targeting Immunomodulatory Peptides” (Advanced Science, 2024)", "biological_target": "T1, MAL^TIR (Homo sapiens, UniProt P58753)", "T1 construct": "MAL (residues 79–221); 6xHis; made in house; host or cells: E. coli BL21 (DE3)", "T1 sequence (P58753 79-221)": "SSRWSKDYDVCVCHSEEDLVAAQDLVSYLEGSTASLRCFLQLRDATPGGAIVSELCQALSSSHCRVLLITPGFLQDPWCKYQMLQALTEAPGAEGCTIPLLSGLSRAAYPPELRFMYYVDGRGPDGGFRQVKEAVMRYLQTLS", "assay": "T‐Surf phage library (P8 and P3) selection against MAL^TIR, four rounds, NGS read counts", "assay_type": "binding", "conditions": "for P3_MAL Rank (after) / P3_MAL Rank (before): P3 library; for Population: P3_MAL pool: P3 T-Surf phage library, 4th round of selection against MAL TIR, share of NGS reads", "summary_of_the_method": "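Coat TIR domain 5 µg mL^−1 overnight; block 0.2% BSA/PBS 1 h, 4 °C; add phage library 1 h, RT; wash ×4 PBS/0.5% Tween‐20; elute 100 mM HCl, neutralize Tris; amplify in TG1, PEG‐precipitate. Repeat to round 4; barcode PCR, NovaSeq, count reads.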", "key": {"[1]": {"conditions": "selection against MAL, rank by count after grouping"}, "[2]": {"conditions": "selection against MAL, rank by count before grouping"}, "[3]": {"conditions": "selection against MAL, rank after grouping"}, "[4]": {"conditions": "selection against MAL, rank before grouping"}, "[5]": {"conditions": "selection against MAL TIR, rank by count after grouping"}, "[6]": {"conditions": "selection against MAL TIR, rank by count before grouping"}, "[7]": {"conditions": "P3_MAL: rank by count after grouping"}, "[8]": {"conditions": "P3_MAL: rank by count before grouping"}, "[9]": {"conditions": "4R selection against MAL, rank after grouping"}, "[10]": {"conditions": "4R selection against MAL, rank before grouping"}}}
{"sequence": "SNLREGLWGLLELSKK", "values": [{"measurement": "P3_MAL Rank (after)", "setting": "[1]", "result": 684}, {"measurement": "P3_MAL Rank (before)", "setting": "[2]", "result": 3216}]}
{"sequence": "SNLRPKVLNYLMRTKI", "values": [{"measurement": "P3_MAL Rank (after)", "setting": "[3]", "result": 531}, {"measurement": "P3_MAL Rank (before)", "setting": "[4]", "result": 1326}]}
{"sequence": "SNLRPKVMNYLMRTKT", "values": [{"measurement": "P3_MAL Rank (after)", "setting": "[1]", "result": 756}, {"measurement": "P3_MAL Rank (before)", "setting": "[2]", "result": 1328}]}
{"sequence": "SPQEQDGFWVRLIEAL", "values": [{"measurement": "Rank (after)", "setting": "P8_MAL: rank by count after grouping", "result": 466}, {"measurement": "Rank (before)", "setting": "P8_MAL: rank by count before grouping", "result": 2527}]}
{"sequence": "SPRKNLVSNLIEEFTR", "values": [{"measurement": "P3_MAL Rank (after)", "setting": "[5]", "result": 252}, {"measurement": "P3_MAL Rank (before)", "setting": "[6]", "result": 3108}]}
{"sequence": "SSCLEGLWRLLELSKK", "values": [{"measurement": "Rank (after)", "setting": "[7]", "result": 476}, {"measurement": "Rank (before)", "setting": "[8]", "result": 3209}]}
{"sequence": "SSCREGLWRLLELCKK", "values": [{"measurement": "P3_MAL Rank (after)", "setting": "[9]", "result": 635}, {"measurement": "P3_MAL Rank (before)", "setting": "[10]", "result": 3210}]}
{"sequence": "SSFCEGLWRLLELSTK", "values": [{"measurement": "P3_MAL Rank (after)", "setting": "[5]", "result": 234}, {"measurement": "P3_MAL Rank (before)", "setting": "[6]", "result": 3122}]}
{"sequence": "SSFLSHLFDALQRKQI", "values": [{"measurement": "P3_MAL Rank (after)", "setting": "[5]", "result": 218}, {"measurement": "P3_MAL Rank (before)", "setting": "[6]", "result": 1020}]}
{"sequence": "SSFRDGLWRLLELRKK", "values": [{"measurement": "P3_MAL Rank (after)", "setting": "[5]", "result": 269}, {"measurement": "P3_MAL Rank (before)", "setting": "[6]", "result": 3129}]}
{"sequence": "SSFRDGLWRLPELSKK", "values": [{"measurement": "P3_MAL Rank (after)", "setting": "[5]", "result": 246}, {"measurement": "P3_MAL Rank (before)", "setting": "[6]", "result": 3130}]}
{"sequence": "SSFREDLWRLRERSKQ", "values": [{"measurement": "P3_MAL Rank (after)", "setting": "[3]", "result": 491}, {"measurement": "P3_MAL Rank (before)", "setting": "[4]", "result": 3187}]}
{"sequence": "SSFREDMWRRLELSQQ", "values": [{"measurement": "P3_MAL Rank (after)", "setting": "[9]", "result": 658}, {"measurement": "P3_MAL Rank (before)", "setting": "[10]", "result": 3188}]}
{"sequence": "SSFREGIWRLLELRKK", "values": [{"measurement": "Rank (after)", "setting": "[7]", "result": 394}, {"measurement": "Rank (before)", "setting": "[8]", "result": 3183}]}
{"sequence": "SSFREGLASAGTEQK", "values": [{"measurement": "Rank (after)", "setting": "[7]", "result": 156}, {"measurement": "Rank (before)", "setting": "[8]", "result": 1037}]}
{"sequence": "SSFREGLGLLLELGKK", "values": [{"measurement": "P3_MAL Rank (after)", "setting": "[3]", "result": 535}, {"measurement": "P3_MAL Rank (before)", "setting": "[4]", "result": 3175}]}
{"sequence": "SSFREGLLRLLELRKK", "values": [{"measurement": "P3_MAL Rank (after)", "setting": "[5]", "result": 265}, {"measurement": "P3_MAL Rank (before)", "setting": "[6]", "result": 3138}]}
{"sequence": "SSFREGLRRMLELTKI", "values": [{"measurement": "P3_MAL Rank (after)", "setting": "[3]", "result": 515}, {"measurement": "P3_MAL Rank (before)", "setting": "[4]", "result": 3176}]}
{"sequence": "SSFREGLSPLAELSGK", "values": [{"measurement": "Rank (after)", "setting": "[7]", "result": 464}, {"measurement": "Rank (before)", "setting": "[8]", "result": 3174}]}
{"sequence": "SSFREGLWHLLELTKT", "values": [{"measurement": "P3_MAL Rank (after)", "setting": "[3]", "result": 525}, {"measurement": "P3_MAL Rank (before)", "setting": "[4]", "result": 3171}]}
{"sequence": "SSFREGLWRLLALSTN", "values": [{"measurement": "P3_MAL Rank (after)", "setting": "[1]", "result": 723}, {"measurement": "P3_MAL Rank (before)", "setting": "[2]", "result": 3142}]}
{"sequence": "SSFREGLWRLLDLSKQ", "values": [{"measurement": "P3_MAL Rank (after)", "setting": "[1]", "result": 732}, {"measurement": "P3_MAL Rank (before)", "setting": "[2]", "result": 3144}]}
{"sequence": "SSFREGLWRLLELIKK", "values": [{"measurement": "Population", "result": 0.00488, "unit": "%"}]}
{"sequence": "SSFREGLWRLLELNKK", "values": [{"measurement": "Population", "result": 0.00488, "unit": "%"}]}
{"sequence": "SSFREGLWRLLELRQK", "values": [{"measurement": "P3_MAL Rank (after)", "setting": "[5]", "result": 276}, {"measurement": "P3_MAL Rank (before)", "setting": "[6]", "result": 3147}]}
{"sequence": "SSFREGLWRLLELSK", "values": [{"measurement": "Rank (after)", "setting": "[7]", "result": 131}, {"measurement": "Rank (before)", "setting": "[8]", "result": 369}]}
{"sequence": "SSFREGLWRLLELSNE", "values": [{"measurement": "Rank (after)", "setting": "[7]", "result": 153}, {"measurement": "Rank (before)", "setting": "[8]", "result": 1027}]}
{"sequence": "SSFREGLWRLLGLIKK", "values": [{"measurement": "P3_MAL Rank (after)", "setting": "[1]", "result": 680}, {"measurement": "P3_MAL Rank (before)", "setting": "[2]", "result": 3140}]}
{"sequence": "SSFREGLWRLMELSNK", "values": [{"measurement": "P3_MAL Rank (after)", "setting": "[9]", "result": 593}, {"measurement": "P3_MAL Rank (before)", "setting": "[10]", "result": 3169}]}
{"sequence": "SSFREGLWRLPELCKK", "values": [{"measurement": "Rank (after)", "setting": "[7]", "result": 430}, {"measurement": "Rank (before)", "setting": "[8]", "result": 3163}]}
{"sequence": "SSFREGLWRLPELSKK", "values": [{"measurement": "Population", "result": 0.00413, "unit": "%"}]}
{"sequence": "SSFREGLWRLRELGKK", "values": [{"measurement": "P3_MAL Rank (after)", "setting": "[9]", "result": 622}, {"measurement": "P3_MAL Rank (before)", "setting": "[10]", "result": 3161}]}
{"sequence": "SSFREGLWRLRGLSKK", "values": [{"measurement": "P3_MAL Rank (after)", "setting": "[5]", "result": 232}, {"measurement": "P3_MAL Rank (before)", "setting": "[6]", "result": 3160}]}
{"sequence": "SSFREGLWRPPELSEK", "values": [{"measurement": "P3_MAL Rank (after)", "setting": "[1]", "result": 748}, {"measurement": "P3_MAL Rank (before)", "setting": "[2]", "result": 3167}]}
{"sequence": "SSFREGLWRRLELSKK", "values": [{"measurement": "Population", "result": 0.00488, "unit": "%"}]}
{"sequence": "SSFREGLWRWRELRKK", "values": [{"measurement": "P3_MAL Rank (after)", "setting": "[3]", "result": 504}, {"measurement": "P3_MAL Rank (before)", "setting": "[4]", "result": 3170}]}
{"sequence": "SSFREGRWRLPEVSKT", "values": [{"measurement": "Rank (after)", "setting": "[7]", "result": 448}, {"measurement": "Rank (before)", "setting": "[8]", "result": 3119}]}
{"sequence": "SSFRERLWRLLELRKK", "values": [{"measurement": "Rank (after)", "setting": "[7]", "result": 128}, {"measurement": "Rank (before)", "setting": "[8]", "result": 3190}]}
{"sequence": "SSFRKGLCRLLELSKK", "values": [{"measurement": "Rank (after)", "setting": "[7]", "result": 463}, {"measurement": "Rank (before)", "setting": "[8]", "result": 3196}]}
{"sequence": "SSFRNDLWRLLELSKK", "values": [{"measurement": "Rank (after)", "setting": "[7]", "result": 419}, {"measurement": "Rank (before)", "setting": "[8]", "result": 3195}]}
